{
  "source": "patent US20120142645A1",
  "about": "“NEUROACTIVE STEROID COMPOSITIONS AND METHODS OF USE FOR LOWERING CHOLESTEROL” (priority 2009, published 2012)",
  "system": "patients with schizophrenia or schizoaffective disorder",
  "assay": "MATRICS/MCCB cognitive battery; same 8-week adjunctive pregnenolone trial",
  "type": "in vivo, human",
  "conditions": "for MATRICS/MCCB Composite score: head prints Raw Scores; for MATRICS/MCCB Composite score / MATRICS/MCCB BACS, symbol coding subtest raw score / MATRICS/MCCB Brief Visuospatial Memory Test-Rev. raw score / MATRICS/MCCB Category fluency test, animal naming raw score / MATRICS/MCCB Continuous Performance Test (CPT), Identical Pairs version-Average d′ raw score / MATRICS/MCCB Hopkins Verbal Learning Test raw score / MATRICS/MCCB Letter-Number Span test raw score / MATRICS/MCCB Mayer-Salovey-Caruso Emotional Intelligence Test, managing emotions branch raw score / MATRICS/MCCB Neuropsychological Assessment Battery, mazes subtest raw score / MATRICS/MCCB Trail Making Test, Part A raw score / MATRICS/MCCB Wechsler Memory Scale, 3rd ed., spatial span subtest raw score: mean, n = 9; for MATRICS/MCCB Composite, difference PG vs placebo in T-score change: column head prints Placebo",
  "description": "Study Design and Subjects. Disclosed herein is a placebo-controlled, double-blind, parallel group, randomized trial of adjunctive pregnenolone for the treatment of cognitive and negative symptoms in patients with schizophrenia or schizoaffective disorder. […] Patients received a total of 6 study visits, which took place every two weeks. […] The trial was conducted at a single site, the Durham Veterans Affairs Medical Center in Durham, N.C. The protocol was approved by the local institutional review board and conducted under FDA Investigational New Drug (IND) #71,768. The ClinicalTrials.gov number for this study is NCT00560937.\nCognitive symptoms were assessed by the Brief Assessment of Cognition in Schizophrenia (BAGS; Keefe et al., 2004; Keefe et al., 2008), and the MATRICS Consensus Cognitive Battery (Nuechterlein & Green, 2006; Nuechterlein et al., 2008). It is believed that no clinical trial to date has reported both of these cognitive assessments within the same study. The BAGS and MATRICS batteries were administered two weeks following the screening visit (following the completion of the two-week placebo lead-in phase at Visit 2), and at two 4-week intervals thereafter (at midpoint following randomization at Visit 4 and at the final visit (Visit 6).\nThe BAGS cognitive battery utilizes the following assessments in the respective targeted domains (Keefe et al., 2004; Keefe et al., 2008): list learning (verbal memory), digit sequencing task (working memory), token motor task (motor speed), verbal fluency (processing speed), symbol coding (attention and processing speed), and the Tower of London test (executive functions/reasoning and problem solving). The MATRICS cognitive battery utilizes the following assessments: Trail Making Test, Part A and the symbol coding subtest of the BAGS (both assess speed of processing), the Hopkins Verbal Learning Test-Revised, immediate recall (three learning trials only) [verbal learning], the Wechsler Memory Scale, 3rd ed., spatial span subtest (working memory, nonverbal), the Letter-Number Span test (working memory, verbal), the Neuropsychological Assessment Battery, mazes subtest (reasoning and problem solving), the Brief Visuospatial Memory Test-Revised (visual learning), the Category Fluency Test (animal naming) [speed of processing], the Mayer-Salovey-Caruso Emotional Intelligence Test, managing emotions branch (social cognition), and the Continuous Performance Test, Identical Pairs version (attention/vigilance) Of note, the symbol coding subtest of the BAGS was administered only once per visit at Visits 2, 4, and 6, although it is a component of both the BAGS and MATRICS cognitive batteries, in order to avoid potentially confounding practice effects.",
  "key": {"[1]": {"conditions": "Week 0 to Week 8, listed as pregnenolone"}},
  "data": [
    {"smiles": "CC(=O)[C@H]1CC[C@H]2[C@@H]3CC=C4C[C@@H](O)CC[C@]4(C)[C@H]3CC[C@]12C", "note": "[PG, pregnenolone]", "values": [
      {"measurement": "MATRICS/MCCB Composite score", "setting": "Week 0 (baseline)", "result": 29.00},
      {"measurement": "MATRICS/MCCB BACS, symbol coding subtest raw score", "setting": "Week 0 (baseline)", "result": 36.89},
      {"measurement": "MATRICS/MCCB Brief Visuospatial Memory Test-Rev. raw score", "setting": "Week 0 (baseline)", "result": 20.22},
      {"measurement": "MATRICS/MCCB Category fluency test, animal naming raw score", "setting": "Week 0 (baseline)", "result": 18.33},
      {"measurement": "MATRICS/MCCB Continuous Performance Test (CPT), Identical Pairs version-Average d′ raw score", "setting": "Week 0 (baseline)", "result": 1.42},
      {"measurement": "MATRICS/MCCB Hopkins Verbal Learning Test raw score", "setting": "Week 0 (baseline)", "result": 18.56},
      {"measurement": "MATRICS/MCCB Letter-Number Span test raw score", "setting": "Week 0 (baseline)", "result": 11.44},
      {"measurement": "MATRICS/MCCB Mayer-Salovey-Caruso Emotional Intelligence Test, managing emotions branch raw score", "setting": "Week 0 (baseline)", "result": 86.89},
      {"measurement": "MATRICS/MCCB Neuropsychological Assessment Battery, mazes subtest raw score", "setting": "Week 0 (baseline)", "result": 13.56},
      {"measurement": "MATRICS/MCCB Trail Making Test, Part A raw score", "setting": "Week 0 (baseline)", "result": 42.11},
      {"measurement": "MATRICS/MCCB Wechsler Memory Scale, 3rd ed., spatial span subtest raw score", "setting": "Week 0 (baseline)", "result": 13.11},
      {"measurement": "MATRICS/MCCB Attention/vigilance domain, change in T-score", "setting": "Week 0 to Week 8", "result": 7.56},
      {"measurement": "MATRICS/MCCB Attention/vigilance domain, difference PG vs placebo in T-score change", "setting": "Week 0 to Week 8", "result": 6.89},
      {"measurement": "MATRICS/MCCB Composite, change in T-score", "setting": "Week 0 to Week 8", "result": 7.00},
      {"measurement": "MATRICS/MCCB Reasoning and Problem Solving domain, change in T-score", "setting": "Week 0 to Week 8", "result": 6.22},
      {"measurement": "MATRICS/MCCB Reasoning and Problem Solving domain, difference PG vs placebo in T-score change", "setting": "Week 0 to Week 8", "result": 0.00},
      {"measurement": "MATRICS/MCCB Social cognition domain, change in T-score", "setting": "Week 0 to Week 8", "result": "−0.89"},
      {"measurement": "MATRICS/MCCB Social cognition domain, difference PG vs placebo in T-score change", "setting": "Week 0 to Week 8", "result": "−9.22"},
      {"measurement": "MATRICS/MCCB Speed of Processing domain, change in T-score", "setting": "Week 0 to Week 8", "result": 5.44},
      {"measurement": "MATRICS/MCCB Speed of Processing domain, difference PG vs placebo in T-score change", "setting": "Week 0 to Week 8", "result": 0.78},
      {"measurement": "MATRICS/MCCB Verbal learning domain, change in T-score", "setting": "Week 0 to Week 8", "result": 3.44},
      {"measurement": "MATRICS/MCCB Verbal learning domain, difference PG vs placebo in T-score change", "setting": "Week 0 to Week 8", "result": 2.67},
      {"measurement": "MATRICS/MCCB Visual learning domain, change in T-score", "setting": "Week 0 to Week 8", "result": 3.78},
      {"measurement": "MATRICS/MCCB Visual learning domain, difference PG vs placebo in T-score change", "setting": "Week 0 to Week 8", "result": "−3.78"},
      {"measurement": "MATRICS/MCCB Working memory domain, change in T-score", "setting": "Week 0 to Week 8", "result": 5.11},
      {"measurement": "MATRICS/MCCB Working memory domain, difference PG vs placebo in T-score change", "setting": "Week 0 to Week 8", "result": 4.00},
      {"measurement": "MATRICS/MCCB Composite, difference PG vs placebo in T-score change", "setting": "Week 0 to Week 8", "result": 0.00},
      {"measurement": "MATRICS/MCCB Composite, difference PG vs placebo in T-score change", "setting": "[1]", "result": "no difference"},
      {"measurement": "MATRICS/MCCB Composite, change in T-score", "setting": "[1]", "result": "7.00±8.87"},
      {"measurement": "MATRICS/MCCB Composite score", "setting": "Week 4", "result": 33.78},
      {"measurement": "MATRICS/MCCB BACS, symbol coding subtest raw score", "setting": "Week 4", "result": 44.78},
      {"measurement": "MATRICS/MCCB Brief Visuospatial Memory Test-Rev. raw score", "setting": "Week 4", "result": 21.33},
      {"measurement": "MATRICS/MCCB Category fluency test, animal naming raw score", "setting": "Week 4", "result": 18.44},
      {"measurement": "MATRICS/MCCB Continuous Performance Test (CPT), Identical Pairs version-Average d′ raw score", "setting": "Week 4", "result": 1.37},
      {"measurement": "MATRICS/MCCB Hopkins Verbal Learning Test raw score", "setting": "Week 4", "result": 20.89},
      {"measurement": "MATRICS/MCCB Letter-Number Span test raw score", "setting": "Week 4", "result": 12.67},
      {"measurement": "MATRICS/MCCB Mayer-Salovey-Caruso Emotional Intelligence Test, managing emotions branch raw score", "setting": "Week 4", "result": 90.60},
      {"measurement": "MATRICS/MCCB Neuropsychological Assessment Battery, mazes subtest raw score", "setting": "Week 4", "result": 15.67},
      {"measurement": "MATRICS/MCCB Trail Making Test, Part A raw score", "setting": "Week 4", "result": 38.33},
      {"measurement": "MATRICS/MCCB Wechsler Memory Scale, 3rd ed., spatial span subtest raw score", "setting": "Week 4", "result": 14.33},
      {"measurement": "MATRICS/MCCB Composite score", "setting": "Week 8", "result": 36.00},
      {"measurement": "MATRICS/MCCB BACS, symbol coding subtest raw score", "setting": "Week 8", "result": 38.67},
      {"measurement": "MATRICS/MCCB Brief Visuospatial Memory Test-Rev. raw score", "setting": "Week 8", "result": 22.33},
      {"measurement": "MATRICS/MCCB Category fluency test, animal naming raw score", "setting": "Week 8", "result": 20.44},
      {"measurement": "MATRICS/MCCB Continuous Performance Test (CPT), Identical Pairs version-Average d′ raw score", "setting": "Week 8", "result": 1.91},
      {"measurement": "MATRICS/MCCB Hopkins Verbal Learning Test raw score", "setting": "Week 8", "result": 21.00},
      {"measurement": "MATRICS/MCCB Letter-Number Span test raw score", "setting": "Week 8", "result": 13.11},
      {"measurement": "MATRICS/MCCB Mayer-Salovey-Caruso Emotional Intelligence Test, managing emotions branch raw score", "setting": "Week 8", "result": 86.10},
      {"measurement": "MATRICS/MCCB Neuropsychological Assessment Battery, mazes subtest raw score", "setting": "Week 8", "result": 17.33},
      {"measurement": "MATRICS/MCCB Trail Making Test, Part A raw score", "setting": "Week 8", "result": "34.33/"},
      {"measurement": "MATRICS/MCCB Wechsler Memory Scale, 3rd ed., spatial span subtest raw score", "setting": "Week 8", "result": 14.22}
    ]}
  ]
}
